Measurements from publication PMC11589570, “Critical assessment of LC3/GABARAP ligands used for degrader development and ligandability of LC3/GABARAP binding pockets” (Nature Communications, 2024).
Like-named read-outs stand apart in the source and are kept apart here.

Experiments:
LC3B = LC3B (Homo sapiens, UniProt Q9GZQ8); conditions: for 3D Mapping code: molar ratio 1:2; for CSP: LC3B:ligand molar ratio 1:2
[1] = system: RPE-1 GFP-LC3B-RPF-LC3∆G reporter cell line; test: Autophagy flux assay; assay type: cell-based; conditions: rebuttal letter
Text: LC3/GABARAP in vitro, but no attempts are made to replicate the previously reported cellular activity of these compounds. It would be beneficial to know whether these compounds have any effect on autophagy in the authors’ hands, and therefore could act by alternative mechanisms, or whether they […]
Response: We were very concerned that the ligands used for ATTEC development might induce general toxicity in cell lines, as they are based on drugs used in oncology (such as the kinesin inhibitor 10O5) and the isoxazole scaffold often used in the development of multi-targeted kinase inhibitors. However, we have now investigated compounds 1-4 in autophagy flux assays using the RPE-1 GFP-LC3B-RPF-LC3∆G reporter cell line (single clone) as […]
reported in [PMID:37558952].
(RR_Figure 6). The authors of the first manuscript reporting these ligands [PMID: 31666698]
However, due to the potent activity of 8F20 on KIF11, which will have profound effects on cell trafficking and growth, and DCAF11 (AN1, [PMID: 38036533]), we find it unlikely that the effects on autophagy are due to LC3/GABARAP modulation. Due to the lack of target (LC3/GABARAP) binding in vitro and the […]
of this review but have excluded the data in the manuscript.
RR_figure 5: Autophagy flux measurement for 10O5 and AN2. No induction of autophagy or effects (right panels, assessed by Incucyte (Sartorius) life cell imaging) on cell growth was […]
RR_figure 6: Autophagy flux measurement for 8F20 and AN1 show changes in autophagy flux […]
It is not clear how many biological replicates have been performed. For example, the figure legends […]

O=C1Nc2ccc(I)cc2C1=Cc1cc(Br)c(O)c(Br)c1 [compound 4]
3D Mapping code (LC3B; LC3B residue M60): Light green (intermediate (SD < CSP <2xSD))
CSP (LC3B; LC3B residue M111): 0.018 ppm
3D Mapping code (LC3B; LC3B residue M111): Light green (intermediate (SD < CSP <2xSD))
CSP (LC3B; LC3B residue N59): 0.072 ppm
3D Mapping code (LC3B; LC3B residue N59): Orange (strong (2xSD <CSP))
CSP (LC3B; LC3B residue N74): 0.002 ppm
CSP (LC3B; LC3B residue N76): 0.00173 ppm
3D Mapping code (LC3B; LC3B residue N84): Light green (intermediate (SD < CSP <2xSD))
CSP (LC3B; LC3B residue P02, estimated): 0.002 ppm
CSP (LC3B; LC3B residue P28, estimated): 0.016 ppm
3D Mapping code (LC3B; LC3B residue P28, CSP estimated): Light green (intermediate (SD < CSP <2xSD))
CSP (LC3B; LC3B residue P32, estimated): 0.024 ppm
3D Mapping code (LC3B; LC3B residue P32, CSP estimated): Light green (intermediate (SD < CSP <2xSD))
CSP (LC3B; LC3B residue P45, estimated): 0.005 ppm
CSP (LC3B; LC3B residue P55, estimated): 0.025 ppm
3D Mapping code (LC3B; LC3B residue P55, CSP estimated): Light green (intermediate (SD < CSP <2xSD))
CSP (LC3B; LC3B residue Q09): 0.000424 ppm
CSP (LC3B; LC3B residue Q15): 0.00358 ppm
CSP (LC3B; LC3B residue Q26): 0.017 ppm
3D Mapping code (LC3B; LC3B residue Q26): Light green (intermediate (SD < CSP <2xSD))
CSP (LC3B; LC3B residue Q43): 0.00371 ppm
CSP (LC3B; LC3B residue Q72): 0.009 ppm
CSP (LC3B; LC3B residue Q77): 0.005 ppm
CSP (LC3B; LC3B residue Q116): 0.00122 ppm
CSP (LC3B; LC3B residue R10): 0.005 ppm
CSP (LC3B; LC3B residue R11): 0.003 ppm
CSP (LC3B; LC3B residue R16): 0.013 ppm
CSP (LC3B; LC3B residue R21): 0.026 ppm
3D Mapping code (LC3B; LC3B residue R21): Light green (intermediate (SD < CSP <2xSD))
CSP (LC3B; LC3B residue R24): 0.014 ppm
CSP (LC3B; LC3B residue R37): 0.016 ppm
CSP (LC3B; LC3B residue R68): 0.032 ppm
3D Mapping code (LC3B; LC3B residue R68): Orange (strong (2xSD <CSP))
CSP (LC3B; LC3B residue R69): 0.020 ppm
3D Mapping code (LC3B; LC3B residue R69): Light green (intermediate (SD < CSP <2xSD))
CSP (LC3B; LC3B residue R70): 0.032 ppm
3D Mapping code (LC3B; LC3B residue R70): Orange (strong (2xSD <CSP))
CSP (LC3B; LC3B residue S03, estimated): 0.002 ppm
CSP (LC3B; LC3B residue S61): 0.017 ppm
3D Mapping code (LC3B; LC3B residue S61): Light green (intermediate (SD < CSP <2xSD))
3D Mapping code (LC3B; LC3B residue S87): Orange (strong (2xSD <CSP))
3D Mapping code (LC3B; LC3B residue S90): Orange (strong (2xSD <CSP))
3D Mapping code (LC3B; LC3B residue S92): Orange (strong (2xSD <CSP))
CSP (LC3B; LC3B residue S96): 0.039 ppm
3D Mapping code (LC3B; LC3B residue S96): Orange (strong (2xSD <CSP))
CSP (LC3B; LC3B residue S101): 0.011 ppm
CSP (LC3B; LC3B residue S115): 0.008 ppm
CSP (LC3B; LC3B residue T06): 0.00323 ppm
CSP (LC3B; LC3B residue T12): 0.00666 ppm
CSP (LC3B; LC3B residue T29, estimated): 0.016 ppm
3D Mapping code (LC3B; LC3B residue T29, CSP estimated): Light green (intermediate (SD < CSP <2xSD))
CSP (LC3B; LC3B residue T50): 0.022 ppm
3D Mapping code (LC3B; LC3B residue T50): Light green (intermediate (SD < CSP <2xSD))
3D Mapping code (LC3B; LC3B residue T93): Orange (strong (2xSD <CSP))
CSP (LC3B; LC3B residue T118): 0.005 ppm
CSP (LC3B; LC3B residue V17): 0.009 ppm
CSP (LC3B; LC3B residue V20): 0.010 ppm
CSP (LC3B; LC3B residue V33): 0.029 ppm
3D Mapping code (LC3B; LC3B residue V33): Light green (intermediate (SD < CSP <2xSD))
CSP (LC3B; LC3B residue V46): 0.008 ppm
CSP (LC3B; LC3B residue V54): 0.049 ppm
3D Mapping code (LC3B; LC3B residue V54): Orange (strong (2xSD <CSP))
CSP (LC3B; LC3B residue V58): 0.034 ppm
3D Mapping code (LC3B; LC3B residue V58): Orange (strong (2xSD <CSP))
3D Mapping code (LC3B; LC3B residue V83): Orange (strong (2xSD <CSP))
3D Mapping code (LC3B; LC3B residue V89): Light green (intermediate (SD < CSP <2xSD))
3D Mapping code (LC3B; LC3B residue V91, CSP estimated): Orange (strong (2xSD <CSP))
CSP (LC3B; LC3B residue V98): 0.013 ppm
CSP (LC3B; LC3B residue V112): 0.027 ppm
3D Mapping code (LC3B; LC3B residue V112): Light green (intermediate (SD < CSP <2xSD))
CSP (LC3B; LC3B residue Y38): 0.00356 ppm
CSP (LC3B; LC3B residue Y99): 0.00251 ppm
CSP (LC3B; LC3B residue Y110): 0.037 ppm
3D Mapping code (LC3B; LC3B residue Y110): Orange (strong (2xSD <CSP))
CSP (LC3B; LC3B residue Y113): 0.013 ppm
CSP induced (LC3B; N59 HN resonance, molar ratio 10O5:LC3B 1): 0.03127
CSP induced (LC3B; N59 HN resonance, molar ratio 10O5:LC3B 2): 0.08027
CSP induced (LC3B; N59 HN resonance, molar ratio 10O5:LC3B 8): 0.1884
CSP induced (LC3B; S90 HN resonance, molar ratio 10O5:LC3B 1): 0.01709
CSP induced (LC3B; S90 HN resonance, molar ratio 10O5:LC3B 2): 0.04125
CSP induced (LC3B; S90 HN resonance, molar ratio 10O5:LC3B 8): 0.08089
CSP induced (LC3B; Y110 HN resonance, molar ratio 10O5:LC3B 1): 0.0222
CSP induced (LC3B; Y110 HN resonance, molar ratio 10O5:LC3B 2): 0.03845
CSP induced (LC3B; Y110 HN resonance, molar ratio 10O5:LC3B 8): 0.0862
autophagy induction (autophagy flux) [1]: did not induce autophagy
effects on cell growth (Incucyte life cell imaging) [1]: No induction of autophagy or effects
